{"source": "patent US20180185408A1", "about": "“ANTIFUNGAL NYLON-3 POLYMERS AND COMBINATION THERAPY USING THEM TO TREAT FUNGAL INFECTIONS” (priority 2016, published 2018)", "key": {"[1]": {"system": "P. carinii", "assay": "Pneumocystis ATP assay (ATP-lite M)", "assay_type": "cell-based, Pneumocystis carinii", "details": "1 ug/mL"}, "[2]": {"system": "P. murina", "assay": "Pneumocystis ATP assay (ATP-lite M)", "assay_type": "cell-based, Pneumocystis murina", "details": "1 ug/mL"}, "[3]": {"system": "H. capsulatum", "assay": "microbe, parasite or virus in culture", "assay_type": "cell-based", "details": "Histoplasma capsulatum"}, "[4]": {"system": "B. dermatitidis", "assay": "MIC80 against dimorphic fungi (CLSI M38-A2)", "assay_type": "cell-based", "details": "Blastomyces dermatitidis"}, "[5]": {"system": "Coccidioides spps.", "assay": "microbe, parasite or virus in culture", "assay_type": "cell-based"}, "[6]": {"system": "Paecilomyces variotii", "assay": "MIC100 against filamentous fungi (CLSI M38-A2)", "assay_type": "cell-based"}, "[7]": {"system": "Fusarium oxysporum", "assay": "MIC100 against filamentous fungi (CLSI M38-A2)", "assay_type": "cell-based", "details": "for polymer efficacy against filamentous fungi, 100%: Clinical isolate; for MIC: Fusarium oxysporum"}, "[8]": {"system": "Scedosporium apoiospermum", "assay": "MIC100 against filamentous fungi (CLSI M38-A2)", "assay_type": "cell-based", "details": "for polymer efficacy against filamentous fungi, 100%: Clinical isolate"}, "[9]": {"system": "Scedosporium prolificans", "assay": "MIC100 against filamentous fungi (CLSI M38-A2)", "assay_type": "cell-based"}, "[10]": {"system": "Aspergillus fumigatus"}}, "note": "Read-outs that look alike come from different tables or passages of the source."}
{"smiles": "N=C(N)c1ccc(OCCCCCOc2ccc(C(=N)N)cc2)cc1", "note": "[Pentamidine]", "values": [{"measurement": "P. carinii % reduction in ATP/vehicle control", "setting": "[1]; 24 hour", "value": 86.79, "unit": "%"}, {"measurement": "P. carinii % reduction in ATP/vehicle control", "setting": "[1]; 48 hr", "value": 87.62, "unit": "%"}, {"measurement": "P. carinii % reduction in ATP/vehicle control", "setting": "[1]; 72 hr", "value": 95.23, "unit": "%"}, {"measurement": "P. murina % reduction in ATP/vehicle control", "setting": "[2]; 24 hour", "value": 90.80, "unit": "%"}, {"measurement": "P. murina % reduction in ATP/vehicle control", "setting": "[2]; 48 hr", "value": 84.39, "unit": "%"}, {"measurement": "P. murina % reduction in ATP/vehicle control", "setting": "[2]; 72 hr", "value": 91.86, "unit": "%"}]}
{"smiles": "C[C@@H](c1ncncc1F)[C@](O)(Cn1cncn1)c1ccc(F)cc1F", "note": "[VOR, voriconazole]", "values": [{"measurement": "MIC80", "setting": "[3]; Histoplasma capsulatum isolate HC1", "value": "≤ 0.03", "unit": "µg/mL"}, {"measurement": "MIC80", "setting": "[3]; Histoplasma capsulatum isolate HC2", "value": 0.25, "unit": "µg/mL"}, {"measurement": "MIC80", "setting": "[3]; Histoplasma capsulatum isolate HC3", "value": 0.125, "unit": "µg/mL"}, {"measurement": "MIC80", "setting": "[3]; Histoplasma capsulatum isolate HC4", "value": 0.06, "unit": "µg/mL"}, {"measurement": "MIC80", "setting": "[3]; Histoplasma capsulatum isolate HC5", "value": 0.25, "unit": "µg/mL"}, {"measurement": "MIC80", "setting": "[3]; Histoplasma capsulatum isolate HC6", "value": 0.125, "unit": "µg/mL"}, {"measurement": "MIC80", "setting": "[3]; Histoplasma capsulatum isolate HC7", "value": 0.5, "unit": "µg/mL"}, {"measurement": "MIC80", "setting": "[3]; Histoplasma capsulatum isolate HC8", "value": 0.25, "unit": "µg/mL"}, {"measurement": "MIC80", "setting": "[3]; Histoplasma capsulatum isolate HC9", "value": 0.06, "unit": "µg/mL"}, {"measurement": "MIC80", "setting": "[3]; Histoplasma capsulatum isolate HC10", "value": 0.06, "unit": "µg/mL"}, {"measurement": "MIC80", "setting": "[4]; Blastomyces dermatitidis isolate BD1", "value": "≤ 0.03", "unit": "µg/mL"}, {"measurement": "MIC80", "setting": "[4]; Blastomyces dermatitidis isolate BD3", "value": 0.5, "unit": "µg/mL"}, {"measurement": "MIC80", "setting": "[5]; Coccidioides sp. isolate Cocci 1", "value": 0.25, "unit": "µg/mL"}, {"measurement": "MIC80", "setting": "[5]; Coccidioides sp. isolate Cocci 2", "value": 0.125, "unit": "µg/mL"}, {"measurement": "MIC80", "setting": "[5]; Coccidioides sp. isolate Cocci 3", "value": 0.06, "unit": "µg/mL"}, {"measurement": "MIC80", "setting": "[5]; Coccidioides sp. isolate Cocci 5", "value": 0.125, "unit": "µg/mL"}, {"measurement": "MIC80", "setting": "[5]; Coccidioides sp. isolate Cocci 6", "value": 0.25, "unit": "µg/mL"}, {"measurement": "MIC80", "setting": "[5]; Coccidioides sp. isolate Cocci 7", "value": 0.125, "unit": "µg/mL"}, {"measurement": "MIC80", "setting": "[5]; Coccidioides sp. isolate Cocci 8", "value": 0.125, "unit": "µg/mL"}, {"measurement": "MIC80", "setting": "[5]; Coccidioides sp. isolate Cocci 9", "value": 1, "unit": "µg/mL"}, {"measurement": "MIC80", "setting": "[5]; Coccidioides sp. isolate Cocci 10", "value": 0.06, "unit": "µg/mL"}, {"measurement": "polymer efficacy against filamentous fungi, 100%", "setting": "[6]; P. variotii QC, CLSI QC isolate for susceptibility testing", "value": 0.125}, {"measurement": "MIC", "setting": "[6]; Paecilomyces variotii, read-out: MIC100", "value": 0.125, "unit": "µg/mL"}, {"measurement": "polymer efficacy against filamentous fungi, 100%", "setting": "[7]; F. oxysporum FO1, Blood", "value": 4}, {"measurement": "polymer efficacy against filamentous fungi, 100%", "setting": "[7]; F. oxysporum FO2, Bone", "value": 4}, {"measurement": "polymer efficacy against filamentous fungi, 100%", "setting": "[7]; F. oxysporum FO3, Blood", "value": ">16"}, {"measurement": "MIC", "setting": "[7]; Fusarium oxysporum isolate FO1", "value": 4, "unit": "µg/mL"}, {"measurement": "MIC", "setting": "[7]; Fusarium oxysporum isolate FO2", "value": 4, "unit": "µg/mL"}, {"measurement": "MIC", "setting": "[7]; Fusarium oxysporum isolate FO3", "value": "> 16", "unit": "µg/mL"}, {"measurement": "polymer efficacy against filamentous fungi, 100%", "setting": "[8]; S. apiopsermum SA1, Toe", "value": 1}, {"measurement": "polymer efficacy against filamentous fungi, 100%", "setting": "[8]; S. apiopsermum SA2, Elbow Tissue", "value": 1}, {"measurement": "MIC", "setting": "[8]; Scedosporium apiopsermum isolate SA1", "value": 1, "unit": "µg/mL"}, {"measurement": "MIC100", "setting": "[8]; Scedosporium apiopsermum isolate SA2", "value": 1, "unit": "µg/mL"}, {"measurement": "polymer efficacy against filamentous fungi, 100%", "setting": "[9]; L. prolificans LP1, Chest Wound, Clinical isolate", "value": ">16"}, {"measurement": "MIC", "setting": "[9]; Lomentospora prolificans, S. prolificans", "value": "> 16", "unit": "µg/mL"}, {"measurement": "MIC100", "setting": "[9]; Scedosporium prolificans isolate LP1", "value": ">16", "unit": "µg/mL"}, {"measurement": "polymer efficacy against filamentous fungi, 100%", "setting": "[10]; A. fumigatus AF1, AF293, Lung", "value": 1}, {"measurement": "polymer efficacy against filamentous fungi, 100%", "setting": "[10]; A. fumigatus AF2, Clinical isolate, Azole resistant", "value": 1}, {"measurement": "polymer efficacy against filamentous fungi, 100%", "setting": "[10]; A. fumigatus AF3, Clinical isolate, Azole susceptible", "value": 0.25}]}
